Measured values taken from patent US20260256830A1, “PERITONEAL DIALYSIS FLUID” (ZYTOPROTEC FLEXIBLE KAPITALGESELLSCHAFT, priority 2022, published 2026).
Peptide text beside a SMILES is read from it.

Test: Long-term stability of AGD in alkaline solution (amino acid analysis)
Type: physicochemical
Details: 52 weeks; for AGD, % of original amount after storage: 25° C./60% rH
Procedure: The long-term stability tests of AGD in an alkaline solution according to the present invention have been performed. […] The pH of each sample was adjusted with 1 M NaOH. Aliquots of each sample were prepared under controlled conditions and stored under the defined conditions at 25° C./60% rH. Sterilization was performed under following conditions: The stability of AGD has been investigated by AS analysis. Analysis was performed by […] amino acid analysis with JEX and post column derivatization with Ninhydrine.

With `C[C@H](N)C(=O)N[C@@H](CCC(N)=O)C(=O)O` [AGD, L-alanyl-L-glutamine] (H-Ala-Gln-OH) the “decrease of the AGD, of original amount” value (both samples (pH 7.4 and 7.8), storage at 25° C./60% rH) was “less than 5%”, the “AGD, % of original amount after storage” value (sample with pH-value of 7.4) was 98% and the “AGD, % of original amount after storage” value (sample with pH-value of 7.8) was > 95%.
